Drawing on PubChem BioAssay AID1259407 (Chemical Carcinogenesis Research Information System (CCRIS), 2018), this text covers mutagenic call for four compounds.

For this data set, the system named is CCRIS mutagenicity, Ames/micronucleus/aberration tests. The data set is described as follows: CCRIS mutagenicity studies.
Setting [1] is: Test System: AMES SALMONELLA TYPHIMURIUM, Strain/Indicator: TA97, Metabolic Activation: NONE, Method: STANDARD PLATE.
The mark [2] stands for this setting: Test System: AMES SALMONELLA TYPHIMURIUM, Strain/Indicator: TA98, Metabolic Activation: NONE, Method: PREINCUBATION
Setting [3] is: Test System: AMES SALMONELLA TYPHIMURIUM, Strain/Indicator: TA98, Metabolic Activation: NONE, Method: STANDARD PLATE.
[4] abbreviates: Test System: AMES SALMONELLA TYPHIMURIUM, Strain/Indicator: TA100, Metabolic Activation: NONE, Method: PREINCUBATION
[5] abbreviates: Test System: AMES SALMONELLA TYPHIMURIUM, Strain/Indicator: TA100, Metabolic Activation: NONE, Method: STANDARD PLATE.
[6] abbreviates: Test System: AMES SALMONELLA TYPHIMURIUM, Strain/Indicator: TA102, Metabolic Activation: NONE, Method: STANDARD PLATE.
The mark [7] stands for this setting: Test System: AMES SALMONELLA TYPHIMURIUM, Strain/Indicator: TA1535, Metabolic Activation: NONE, Method: STANDARD PLATE.

Each structure is given as a SMILES string. Calls of active or inactive are those of the source. How the calls were made is not given here.

Turning to `CC(=O)c1cc2c(cc1C)C(C)(C)C(C)CC2(C)C` (stereo unspecified), the mutagenic call runs as follows: (Test System: AMES SALMONELLA TYPHIMURIUM, Strain/Indicator: TA97, Metabolic Activation: NONE, Method: PREINCUBATION) “inactive; negative”; under setting [1], “inactive; negative”; (Test System: AMES SALMONELLA TYPHIMURIUM, Strain/Indicator: TA97, Metabolic Activation: RAT LIVER S-9, AROCLOR 1254, Method: STANDARD PLATE) “inactive; negative”; (Test System: AMES SALMONELLA TYPHIMURIUM, Strain/Indicator: TA97, Metabolic Activation: RAT LIVER S-9, PHENOBARBITAL, BETA-NAPHTHOFLAVONE, Method: PREINCUBATION) “inactive; negative”; (Test System: AMES SALMONELLA TYPHIMURIUM, Strain/Indicator: TA97, Metabolic Activation: RAT LIVER S-9, PHENOBARBITAL, BETA-NAPHTHOFLAVONE, Method: STANDARD PLATE) “inactive; negative”; under setting [2], “inactive; negative”. The mutagenic call reads like this: under setting [3], “inactive; negative”; (Test System: AMES SALMONELLA TYPHIMURIUM, Strain/Indicator: TA98, Metabolic Activation: RAT LIVER S-9, AROCLOR 1254, Method: STANDARD PLATE) “inactive; negative”; (Test System: AMES SALMONELLA TYPHIMURIUM, Strain/Indicator: TA98, Metabolic Activation: RAT LIVER S-9, PHENOBARBITAL, BETA-NAPHTHOFLAVONE, Method: PREINCUBATION) “inactive; negative”; (Test System: AMES SALMONELLA TYPHIMURIUM, Strain/Indicator: TA98, Metabolic Activation: RAT LIVER S-9, PHENOBARBITAL, BETA-NAPHTHOFLAVONE, Method: STANDARD PLATE) “inactive; negative”; under setting [4], “inactive; negative”; under setting [5], “inactive; negative”. The mutagenic call (Test System: AMES SALMONELLA TYPHIMURIUM, Strain/Indicator: TA100, Metabolic Activation: RAT LIVER S-9, AROCLOR 1254, Method: STANDARD PLATE) is “inactive; negative”; the mutagenic call (Test System: AMES SALMONELLA TYPHIMURIUM, Strain/Indicator: TA100, Metabolic Activation: RAT LIVER S-9, PHENOBARBITAL, BETA-NAPHTHOFLAVONE, Method: PREINCUBATION) is “inactive; negative”; the mutagenic call (Test System: AMES SALMONELLA TYPHIMURIUM, Strain/Indicator: TA100, Metabolic Activation: RAT LIVER S-9, PHENOBARBITAL, BETA-NAPHTHOFLAVONE, Method: STANDARD PLATE) was “inactive; negative”; the mutagenic call (Test System: AMES SALMONELLA TYPHIMURIUM, Strain/Indicator: TA102, Metabolic Activation: NONE, Method: PREINCUBATION) was “inactive; negative”; the mutagenic call under setting [6] is “inactive; negative”; the mutagenic call (Test System: AMES SALMONELLA TYPHIMURIUM, Strain/Indicator: TA102, Metabolic Activation: RAT LIVER S-9, AROCLOR 1254, Method: STANDARD PLATE) is “inactive; negative”. In addition, the mutagenic call is “inactive; negative” (Test System: AMES SALMONELLA TYPHIMURIUM, Strain/Indicator: TA102, Metabolic Activation: RAT LIVER S-9, PHENOBARBITAL, BETA-NAPHTHOFLAVONE, Method: PREINCUBATION); “inactive; negative” (Test System: AMES SALMONELLA TYPHIMURIUM, Strain/Indicator: TA102, Metabolic Activation: RAT LIVER S-9, PHENOBARBITAL, BETA-NAPHTHOFLAVONE, Method: STANDARD PLATE); “inactive; negative” (Test System: AMES SALMONELLA TYPHIMURIUM, Strain/Indicator: TA1535, Metabolic Activation: NONE, Method: PREINCUBATION); “inactive; negative” under setting [7]; “inactive; negative” (Test System: AMES SALMONELLA TYPHIMURIUM, Strain/Indicator: TA1535, Metabolic Activation: RAT LIVER S-9, PHENOBARBITAL, BETA-NAPHTHOFLAVONE, Method: PREINCUBATION); “inactive; negative” (Test System: AMES SALMONELLA TYPHIMURIUM, Strain/Indicator: TA1535, Metabolic Activation: RAT LIVER S-9, PHENOBARBITAL, BETA-NAPHTHOFLAVONE, Method: STANDARD PLATE). Further, the mutagenic call by setting is: (Test System: AMES SALMONELLA TYPHIMURIUM, Strain/Indicator: TA1537, Metabolic Activation: NONE, Method: PREINCUBATION) “inactive; negative”; (Test System: AMES SALMONELLA TYPHIMURIUM, Strain/Indicator: TA1537, Metabolic Activation: NONE, Method: STANDARD PLATE) “inactive; negative”; (Test System: AMES SALMONELLA TYPHIMURIUM, Strain/Indicator: TA1537, Metabolic Activation: RAT LIVER S-9, PHENOBARBITAL, BETA-NAPHTHOFLAVONE, Method: PREINCUBATION) “inactive; negative”; (Test System: AMES SALMONELLA TYPHIMURIUM, Strain/Indicator: TA1537, Metabolic Activation: RAT LIVER S-9, PHENOBARBITAL, BETA-NAPHTHOFLAVONE, Method: STANDARD PLATE) “inactive; negative”; (Test System: ESCHERICHIA COLI, Strain/Indicator: WP2 UVR A, Metabolic Activation: NONE, Method: PREINCUBATION) “inactive; negative”; (Test System: ESCHERICHIA COLI, Strain/Indicator: WP2 UVR A, Metabolic Activation: NONE, Method: STANDARD PLATE) “inactive; negative”. Moreover, the mutagenic call reads like this: (Test System: ESCHERICHIA COLI, Strain/Indicator: WP2 UVR A, Metabolic Activation: RAT LIVER S-9, PHENOBARBITAL, BETA-NAPHTHOFLAVONE, Method: PREINCUBATION) “inactive; negative”; (Test System: ESCHERICHIA COLI, Strain/Indicator: WP2 UVR A, Metabolic Activation: RAT LIVER S-9, PHENOBARBITAL, BETA-NAPHTHOFLAVONE, Method: STANDARD PLATE) “inactive; negative”; (Test System: UDS RAT HEPATOCYTES, Metabolic Activation: NONE, Method: NET NUCLEAR GRAIN COUNT) “inactive; negative”.

For the compound `O=C1c2ccccc2C(=O)c2c1cc(O)c(C(=O)O)c2O`, the mutagenic call was “inactive; negative” under setting [2]; “inactive; negative” (Test System: AMES SALMONELLA TYPHIMURIUM, Strain/Indicator: TA98, Metabolic Activation: RAT, LIVER, S-9, PCB, Method: PREINCUBATION); “inactive; negative” under setting [4]; “inactive; negative” (Test System: AMES SALMONELLA TYPHIMURIUM, Strain/Indicator: TA100, Metabolic Activation: RAT, LIVER, S-9, PCB, Method: PREINCUBATION).

On to `CC(C)CCC[C@@H](C)[C@H]1CC[C@H]2[C@@H]3C(=O)C=C4C[C@@H](O)CC[C@]4(C)[C@H]3CC[C@]12C`, for which the mutagenic call was “inactive; negative” under setting [1]; “inactive; negative” under setting [3]; “inactive; negative” under setting [5]; “inactive; negative” under setting [6]; “inactive; negative” under setting [7].

Take `CC(=O)[O-].CC(=O)[O-].O.O.O.[Pb+2]`: the mutagenic call was “active; positive (aneugenic above 0.05 um)” (End Point: IN VITRO MICRONUCLEUS, Test System: HAMSTER V79 CELLS, Metabolic Activation: NONE); “inactive; negative” (End Point: IN VIVO MICRONUCLEUS, Test System: BLOOD ERYTHROCYTES AND RETICULOCYTES, Species: RAT, Strain/Sex: WISTAR/MALE, FEMALE (SUCKLING), Route: IP INJECTION); “active; positive” (End Point: IN VIVO MICRONUCLEUS, Test System: RETICULOCYTES, ERYTHROCYTES, Species: RAT, Strain/Sex: WISTAR/MALE, FEMALE (SUCKLING), Route: ORAL); “active; positive” (End Point: In vivo micronucleus, Test System: Bone marrow polychromatic erythrocytes, Species: Rat, Strain/Sex: Wistar/Male, female, Route: Oral).
